According to ChEMBL document CHEMBL1777701, “Glucosides with cyclic diarylpolynoid as novel C-aryl glucoside SGLT2 inhibitors” (Bioorg Med Chem Lett, 2011):

Biological target: T1, Sodium/glucose cotransporter 2 (Homo sapiens, UniProt P31639)
T1 sequence (P31639 whole entry): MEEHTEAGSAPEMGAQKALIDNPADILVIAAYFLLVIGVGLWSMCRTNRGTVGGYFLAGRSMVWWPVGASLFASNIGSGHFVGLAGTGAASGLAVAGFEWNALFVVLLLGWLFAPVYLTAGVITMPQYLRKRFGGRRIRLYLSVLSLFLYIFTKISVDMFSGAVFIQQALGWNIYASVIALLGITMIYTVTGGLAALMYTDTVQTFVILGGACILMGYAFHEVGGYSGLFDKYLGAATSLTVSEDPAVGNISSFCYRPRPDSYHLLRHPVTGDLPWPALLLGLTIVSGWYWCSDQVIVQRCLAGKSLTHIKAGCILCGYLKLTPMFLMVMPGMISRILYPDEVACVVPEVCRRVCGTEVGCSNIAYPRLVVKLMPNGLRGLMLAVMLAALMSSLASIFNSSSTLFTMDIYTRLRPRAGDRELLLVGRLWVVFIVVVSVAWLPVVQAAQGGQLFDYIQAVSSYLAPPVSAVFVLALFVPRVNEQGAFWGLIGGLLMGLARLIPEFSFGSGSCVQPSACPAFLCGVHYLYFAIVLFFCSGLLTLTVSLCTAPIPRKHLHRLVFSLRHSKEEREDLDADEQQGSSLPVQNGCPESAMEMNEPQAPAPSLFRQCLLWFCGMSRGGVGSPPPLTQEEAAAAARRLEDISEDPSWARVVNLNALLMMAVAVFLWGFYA
Experiment: Inhibition of human SGLT2 expressed in CHO cells using methyl-alpha-D-glucopyranoside by liquid scintillation counting
Format: cell-based

Row | IC50 [nM] | SMILES
1 | 89.6 | OC[C@H]1O[C@@H](c2ccc3c(c2)Cc2ccc(cc2)OC/C=C/CCC3)[C@H](O)[C@@H](O)[C@@H]1O
2 | 103 | OC[C@H]1O[C@@H](c2ccc3c(c2)Cc2ccc(cc2)OC/C=C/CCCC3)[C@H](O)[C@@H](O)[C@@H]1O
3 | 81.9 | OC[C@H]1O[C@@H](c2ccc3c(c2)Cc2ccc(cc2)OCCCCCC3)[C@H](O)[C@@H](O)[C@@H]1O
4 | 99.7 | OC[C@H]1O[C@@H](c2ccc3c(c2)Cc2ccc(cc2)OCCCCCCC3)[C@H](O)[C@@H](O)[C@@H]1O
